Data published in patent US20210221812A1, “MATRINE a-KETOAMINE COMPOUNDS, PREPARATION METHOD THEREFOR AND USE THEREOF” (SHANGHAI XINGYE PHARMACEUTICAL TECHNOLOGY CO., LTD, priority 2018, published 2021).

Each compound was assayed on Lovo cells (assay: Anti-tumor activity of NK cells activated by compounds, Lovo (CFSE/PI flow cytometry)). Conditions: Homo sapiens, tumor cells treated with 20 μM compound 48 h, then mixed with NK cells 5:1 for 4 hours, CFSE+PI+ tumor cells, read-out: Lovo inhibition rate (%).
Assay type: cell-based
Description: (§1) Logarithmic growth phase of Lovo, HpeG-2, A549, k562, Panc-1 cells were collected and seeded in a 6-well plate at a density of 5×10^5/mL and 2 mL/well separately. The experimental group was treated with 20 μM final drug concentration of GJDx compounds, and the control group was treated with an equal volume of RPMI1640 medium. The groups were cultured at 37° C., saturated humidity, 5% CO2 for 48 h. After that, the cells of each group were collected, centrifuged and the supernatant was removed and resuspended in PBS at a density of 1×10^6/mL. Then 2 μL of CFSE stock solution (final concentration was 10 μM) was added into the cell suspension per 1 mL and cultured at 37° C. with 5% CO2 for 30 min, and then added 5-10 times of the volume of 4° C. pre-chilled RPM 1640 complete medium, and incubated on ice for 5 minutes, discarded the supernatant by centrifugation at 4° C., and wash the cells with fresh medium for 3 times. After that, mixing the labeled tumor cells and NK cells (the NK cell culture medium was α-MEM contained 1.5 g/L sodium bicarbonate, 12.5% fetal bovine serum, and 12.5% horse serum) according to the ratio of 5:1, the mixture cells was collected and washed with flow buffer twice after incubated for 4 hours, then 50 μg/mL PI was added, and incubated at room temperature for 15 minutes in the dark, and finally testing the percentage of CFSE^+PI^+ tumor cells on the flow cytometer.

`O=C1c2cccnc2C(=O)N1C1CC[C@@H]2[C@H]3CCCN4CCC[C@@H](CN2C1=O)[C@@H]34` (stereo partly drawn) [GJD 15] and `O=C1[C@H](N2C(=O)c3ccccc3C2=O)CC[C@@H]2[C@H]3CCCN4CCC[C@@H](CN12)[C@@H]34` [GJD 26] cannot be ordered by inhibition at 20 µM: > 50% for the first, > 50% for the second.

`Nc1cccc2c1C(=O)N(C1CC[C@@H]3[C@H]4CCC[N+]5([O-])CCC[C@@H](CN3C1=O)[C@@H]45)C2=O` (stereo partly drawn) [GJD 63] and `O=C1c2cccc([N+](=O)[O-])c2CN1C1CC[C@@H]2[C@H]3CCCN4CCC[C@@H](CN2C1=O)[C@@H]34` (stereo partly drawn) [GJD 31] cannot be ordered by inhibition at 20 µM: > 50% for the first, > 50% for the second.

Going from `CC(=O)Oc1ccccc1C(=O)NC1CC[C@@H]2[C@H]3CCCN4CCC[C@@H](CN2C1=O)[C@@H]34` (stereo partly drawn) [GJD 51] to `O=C1c2ccccc2CN1C1CC[C@@H]2[C@H]3CCCN4CCC[C@H](CN2C1=O)[C@@H]34` (stereo partly drawn) [GJD 42], the inhibition at 20 µM rises from < 50% to > 50%.

What follows are compounds tested on HpeG-2 cells (assay: Anti-tumor activity of NK cells activated by compounds, HpeG-2 (CFSE/PI flow cytometry)). Conditions: tumor cells treated with 20 μM compound 48 h, then mixed with NK cells 5:1 for 4 hours; CFSE+PI+ tumor cells; read-out: HpeG-2 inhibition rate (%).
Assay type: cell-based
Description: as §1

`O=C1c2cccnc2C(=O)N1C1CC[C@@H]2[C@H]3CCCN4CCC[C@@H](CN2C1=O)[C@@H]34` (stereo partly drawn) [GJD 15] and `O=C1[C@H](N2C(=O)c3ccccc3C2=O)CC[C@@H]2[C@H]3CCCN4CCC[C@@H](CN12)[C@@H]34` [GJD 26] cannot be ordered by inhibition at 20 µM: > 50% for the first, > 50% for the second.

`Nc1cccc2c1C(=O)N(C1CC[C@@H]3[C@H]4CCC[N+]5([O-])CCC[C@@H](CN3C1=O)[C@@H]45)C2=O` (stereo partly drawn) [GJD 63] and `O=C1c2cccc([N+](=O)[O-])c2CN1C1CC[C@@H]2[C@H]3CCCN4CCC[C@@H](CN2C1=O)[C@@H]34` (stereo partly drawn) [GJD 31] cannot be ordered by inhibition at 20 µM: > 50% for the first, > 50% for the second.

`CC(=O)Oc1ccccc1C(=O)NC1CC[C@@H]2[C@H]3CCCN4CCC[C@@H](CN2C1=O)[C@@H]34` (stereo partly drawn) [GJD 51] and `O=C1c2ccccc2CN1C1CC[C@@H]2[C@H]3CCCN4CCC[C@H](CN2C1=O)[C@@H]34` (stereo partly drawn) [GJD 42] cannot be ordered by inhibition at 20 µM: > 50% for the first, > 50% for the second.

What follows are compounds tested on Panc-1 cells (assay: Anti-tumor activity of NK cells activated by compounds, Panc-1 (CFSE/PI flow cytometry)). Conditions: Homo sapiens, tumor cells treated with 20 μM compound 48 h, then mixed with NK cells 5:1 for 4 hours, CFSE+PI+ tumor cells, read-out: Panc-1 inhibition rate (%).
Assay type: cell-based
Description: as §1

`O=C1c2cccnc2C(=O)N1C1CC[C@@H]2[C@H]3CCCN4CCC[C@@H](CN2C1=O)[C@@H]34` (stereo partly drawn) [GJD 15] and `O=C1[C@H](N2C(=O)c3ccccc3C2=O)CC[C@@H]2[C@H]3CCCN4CCC[C@@H](CN12)[C@@H]34` [GJD 26] cannot be ordered by inhibition at 20 µM: > 50% for the first, > 50% for the second.

`Nc1cccc2c1C(=O)N(C1CC[C@@H]3[C@H]4CCC[N+]5([O-])CCC[C@@H](CN3C1=O)[C@@H]45)C2=O` (stereo partly drawn) [GJD 63] and `O=C1c2cccc([N+](=O)[O-])c2CN1C1CC[C@@H]2[C@H]3CCCN4CCC[C@@H](CN2C1=O)[C@@H]34` (stereo partly drawn) [GJD 31] cannot be ordered by inhibition at 20 µM: > 50% for the first, ≥ 50% for the second.

`CC(=O)Oc1ccccc1C(=O)NC1CC[C@@H]2[C@H]3CCCN4CCC[C@@H](CN2C1=O)[C@@H]34` (stereo partly drawn) [GJD 51] and `O=C1c2ccccc2CN1C1CC[C@@H]2[C@H]3CCCN4CCC[C@H](CN2C1=O)[C@@H]34` (stereo partly drawn) [GJD 42] cannot be ordered by inhibition at 20 µM: < 50% for the first, < 50% for the second.

Each compound was assayed on k562 cells (assay: Anti-tumor activity of NK cells activated by compounds, k562 (CFSE/PI flow cytometry)). Conditions: Homo sapiens, tumor cells treated with 20 μM compound 48 h, then mixed with NK cells 5:1 for 4 hours, CFSE+PI+ tumor cells, read-out: k562 inhibition rate (%).
Assay type: cell-based
Description: as §1

Going from `O=C1c2cccnc2C(=O)N1C1CC[C@@H]2[C@H]3CCCN4CCC[C@@H](CN2C1=O)[C@@H]34` (stereo partly drawn) [GJD 15] to `O=C1[C@H](N2C(=O)c3ccccc3C2=O)CC[C@@H]2[C@H]3CCCN4CCC[C@@H](CN12)[C@@H]34` [GJD 26], the inhibition at 20 µM rises from < 50% to > 50%.

`Nc1cccc2c1C(=O)N(C1CC[C@@H]3[C@H]4CCC[N+]5([O-])CCC[C@@H](CN3C1=O)[C@@H]45)C2=O` (stereo partly drawn) [GJD 63] and `O=C1c2cccc([N+](=O)[O-])c2CN1C1CC[C@@H]2[C@H]3CCCN4CCC[C@@H](CN2C1=O)[C@@H]34` (stereo partly drawn) [GJD 31] cannot be ordered by inhibition at 20 µM: > 50% for the first, > 50% for the second.

`CC(=O)Oc1ccccc1C(=O)NC1CC[C@@H]2[C@H]3CCCN4CCC[C@@H](CN2C1=O)[C@@H]34` (stereo partly drawn) [GJD 51] and `O=C1c2ccccc2CN1C1CC[C@@H]2[C@H]3CCCN4CCC[C@H](CN2C1=O)[C@@H]34` (stereo partly drawn) [GJD 42] cannot be ordered by inhibition at 20 µM: < 50% for the first, < 50% for the second.

What follows are compounds tested on A549 cells (assay: Anti-tumor activity of NK cells activated by compounds, A549 (CFSE/PI flow cytometry)). Conditions: Homo sapiens, tumor cells treated with 20 μM compound 48 h, then mixed with NK cells 5:1 for 4 hours, CFSE+PI+ tumor cells, read-out: A549 inhibition rate (%).
Assay type: cell-based
Description: as §1

`O=C1c2cccnc2C(=O)N1C1CC[C@@H]2[C@H]3CCCN4CCC[C@@H](CN2C1=O)[C@@H]34` (stereo partly drawn) [GJD 15] and `O=C1[C@H](N2C(=O)c3ccccc3C2=O)CC[C@@H]2[C@H]3CCCN4CCC[C@@H](CN12)[C@@H]34` [GJD 26] cannot be ordered by inhibition at 20 µM: > 50% for the first, > 50% for the second.

`Nc1cccc2c1C(=O)N(C1CC[C@@H]3[C@H]4CCC[N+]5([O-])CCC[C@@H](CN3C1=O)[C@@H]45)C2=O` (stereo partly drawn) [GJD 63] and `O=C1c2cccc([N+](=O)[O-])c2CN1C1CC[C@@H]2[C@H]3CCCN4CCC[C@@H](CN2C1=O)[C@@H]34` (stereo partly drawn) [GJD 31] cannot be ordered by inhibition at 20 µM: > 50% for the first, > 50% for the second.

Going from `CC(=O)Oc1ccccc1C(=O)NC1CC[C@@H]2[C@H]3CCCN4CCC[C@@H](CN2C1=O)[C@@H]34` (stereo partly drawn) [GJD 51] to `O=C1c2ccccc2CN1C1CC[C@@H]2[C@H]3CCCN4CCC[C@H](CN2C1=O)[C@@H]34` (stereo partly drawn) [GJD 42], the inhibition at 20 µM rises from < 50% to > 50%.
